{"source": "patent US10857201B2", "about": "“NNIF and nNIF-related peptides and related methods” (UNIVERSITY OF UTAH RESEARCH FOUNDATION, priority 2016, dated 2020)", "key": {"[1]": {"test_system": "C57BL/6 mice subjected to CLP", "assay": "Mouse model of polymicrobial sepsis, cecal ligation and puncture (CLP)", "details": "10 mg/kg i.p. 1 hour before and 6 hours after, versus nNIF-SCR", "quoted_text": "FIG. 9B is a graph depicting C57BL/6 mice that were subjected to cecal ligation and puncture (CLP). nNIF or nNIF-SCR (10 mg/kg i.p.) was given 1 hour before and 6 hours after surgery (n≥7 in each group). Mice subjected to sham surgery were studied in parallel (n=3 in each group). Clinical illness severity scores (see Araujo C V, et al., Shock. 2016; 45 (4):393-403) were determined at 24 hours.\nC57BL/6 mice were anaesthetized with ketamine/xylazine (100 mg/kg and 10 mg/kg, i.p; respectively), and cecal ligation and puncture (CLP) was performed as previously described (see Araujo C V, et al., Shock. 2016; 45 (4):393-403). nNIF (10 mg/kg) or nNIF-SCR (10 mg/kg) i.p. was given 1 hour prior to and 6 hours after CLP surgery. The animals received subcutaneous sterile isotonic saline (1 mL) for fluid resuscitation immediately after the surgery. Sham-operated mice were subjected to identical procedures except that CLP was not done. 24 hours after CLP, all animals were scored for clinical illness severity as previously described (see Araujo C V, et al., Shock. 2016; 45 (4):393-403). In this assessment, higher scores reflect increased illness severity."}, "platelets": {"test_system": "platelets", "assay": "P-selectin surface translocation on thrombin-activated platelets (flow cytometry)", "format": "cell-based, human", "details": "thrombin 0.1 U/mL; peptide 1 nM", "description": "FIG. 6E is a graph depicting surface translocation of P-selectin on platelets activated by thrombin (0.1 U/mL) that was measured by flow cytometry. The dashed line indicates surface P-selectin on unstimulated platelets.\n(§1) P-selectin translocation and surface display by activated platelets (see van Velzen J F, et al., Thromb Res. 2012; 130 (1):92-8) and formation of platelet-neutrophil aggregates (see Evangelista V, et al., Blood. 1996; 88 (11):4183-94) were measured as described."}, "[2]": {"test_system": "activated human platelets and PMNs", "assay": "Platelet-neutrophil aggregate formation", "format": "cell-based", "details": "thrombin 0.1 U/mL, LPS 100 ng/mL; peptide 1 nM", "description": "FIG. 6F is a graph depicting formation of platelet-neutrophil aggregates that was measured after mixing of platelets activated with thrombin (0.1 U/mL) and neutrophils activated with LPS (100 ng/mL). The dashed line indicates control aggregate formation in response to LPS stimulation of the PMNs alone. *P<0.05 for CRISPP and CRISPP-SCR compared to control. FIGS. 6A-6F are a series of graphs depicting isolated adult neutrophils or platelets that were preincubated with buffer or with CRISPP, nNIF, or CRISPP-SCR (1 nM, 1 hour for each) followed by measurement of functional responses. A minimum of three separate assays were done for each response. Error bars=SEM. Tukey's post hoc testing was applied in FIGS. 6B, 6D, 6E, and 6F.\nas §1"}, "[3]": {"test_system": "PMN killing of a pathogenic strain of Escherichia coli", "assay": "Bacterial killing assay (total, phagocytic, NET-mediated)", "format": "cell-based, human", "details": "LPS-stimulated PMNs, E. coli", "description": "FIG. 6A is a graph depicting results, after preincubation, of neutrophils that were stimulated with LPS (100 ng/mL) to trigger NET formation and incubated with a pathogenic isolate of E. coli. Total, phagocytic, and NET-mediated bacterial killing were measured (see Yost C C, et al., Blood. 2009; 113 (25):6419-27). One way ANOVA with Bonferonni's post hoc testing; *P<0.05, **P<0.01.\nNET-mediated and phagocytic bacterial killing by primary human PMNs was determined as previously described (see Yost C C, et al., Blood. 2009; 113 (25):6419-27).\nWithout being bound by any specific theory, it was hypothesized that placentally expressed HTRA1, a serine protease, regulates the formation of NET-inhibitory peptides through cleavage of AAT. To test this hypothesis, term and preterm placenta were assessed for HTRA1 expression via western blotting. HTRA1 and AAT plasma expression from term and preterm infants and adults were determined by ELISA. Bioactive (0.5 μg) or placental eluted HTRA1 was incubated with AAT (8 μM) for 18 hours at 37° C. Carboxy-terminus fragments of AAT were detected using western blotting and mass spectrometry. The reaction products were incubated for 1 hour with PMNs isolated from healthy adults prior to LPS stimulation (100 ng/mL) and assessed for NET formation using live cell imaging. Reactive oxygen species were assessed using flow cytometry, chemotaxis using a modified Boyden chamber assay, and bacterial killing using E. coli."}}, "data": [{"substance": "KFNKPFVFLMIEQNTKSPLFMGKVVNPTQ (listed as Homo sapiens) [nNIF]", "values": [{"measurement": "clinical illness scores at 24 hours", "setting": "[1]", "value": "lower"}]}, {"substance": "M_IPPEVKFNKPFVFLMIDQNTKVPLFMGK [CRISPP, consensus peptide based on factors present in the blood of patients with cancer]", "values": [{"measurement": "surface translocation of P-selectin by thrombin-stimulated platelets", "setting": "platelets", "value": "does not inhibit"}, {"measurement": "formation of heterotypic aggregates by activated platelets and PMNs", "setting": "[2]", "value": "does not inhibit"}, {"measurement": "extracellular NET-mediated bacterial killing", "setting": "[3]", "value": "depressed"}, {"measurement": "phagocytic intracellular killing", "setting": "[3]", "value": "not altered"}, {"measurement": "total bacterial killing", "setting": "[3]", "value": "depressed"}]}]}
